According to patent US5851994A, “Compositions that inhibit wound contraction and methods of using same” (La Jolla Cancer Research Foundation, priority 1995, dated 1998):

Key:
CTT-18 cells = experiment: Peptide collagen gel contraction assay; format: cell-based, human; settings: FIG. 4, gel area over time
Protocol: CTT-18 cells, which are a normal human colon fibroblast cell line available from ATCC (#1459-CRL), were used in the gel contraction assays. Subconfluent CTT-18 cells were harvested by trypsinization, neutralized with soybean trypsin inhibitor, then washed several times with serum-free Dulbecco's modified Eagle's medium (DMEM). The cells were resuspended at 5×10^6 cells/ml in DMEM.
The collagen solution was prepared by combining the following reagents in the stated order: 1× DMEM, 1× insulin/transferrin/selenium (ITS; Collaborative Research; Bedford Mass.), 25 mM HEPES, 2.5 mg/ml rat tail collagen I (Collaborative Research). The solution was adjusted to pH 7.4 using 2M NaOH and deionized water was added to the appropriate final volume. Finally, 5×10^4 cells/ml (DMEM) were added to the solution and 0.6 ml of the combined solution was added to each well of a 24 well plate. The solution was allowed to gel for 1 hr at 37° C.
Peptides were diluted to 4.5 mM in 1× DMEM/1× ITS/1× penicillin/1× streptomycin and the solution was adjusted to pH 7.4. Each gel was overlayed with 0.6 ml peptide solution and the gel periphery was rimmed to release the gel from the edge of the well. The gels were incubated at 37° C. and each gel area was monitored daily by planimetry using a computerized planimetry program (Digitize, Macintosh).
In addition to determining the area of a gel, a replicate gel for each experimental condition was examined each day for cell viability. To determine cell viability, the overlay media was removed and replaced with 4 mg/ml collagenase type 2 (Worthington Biochemical; Freehold N.J.) in collagen digestion buffer (0.13M NaCl, 0.01M Ca acetate, 0.02M HEPES, pH 7.2). The sample was incubated at 37° C. until digestion was complete (about 1 hr). The solution was centrifuged at 3000 rpm in a microcentrifuge for 5 min and the pellet resuspended in trypsin/EDTA and incubated for 20 min at 37° C. The solution again was centrifuged, the pellet resuspended in 40 μl 0.4% trypan blue and the viable cells were counted in a hemocytometer. In general, the variations in cell viability were slight, and it was unnecessary to correct the gel contraction results due to significant differences in cell viability.

collagen gels = settings: Grinnell et al. 1989; U.S. Pat. No. 4,957,902; cited from earlier work
[1] = test system: NIH 3T3 mouse fibroblasts; experiment: Decorin collagen gel contraction assay, NIH 3T3 cells; format: cell-based; settings: for collagen gel contraction versus control level: 10 ng/ml PDGF, 20 ng/ml acidic FGF, without decorin
Protocol: NIH 3T3 mouse fibroblasts (ATCC #CRL 1658) and WI38 human fibroblasts (ATCC #CL75) were used in these assays and passaged in culture as prescribed.
Cells were collected by washing the cells with sterile PBS, then incubating the cells for 5 min at 37° C. with trypsin-EDTA (200 mg versene and 500 mg trypsin/liter Hank's balanced salt solution; Gibco/BRL; Gaithersburg MD). Following incubation, cells were removed by aspiration with a pipet and DMEM supplemented with 10% FBS (BioWhittaker; Walkersville Md.) was added to neutralize the trypsin. Cells were centrifuged for 8 min at 1200 rpm, decanted, washed 3× with serum-free DMEM and resuspended in serum-free DMEM to the following concentrations: NIH 3T3 cells, 3.0×10^6 cells/ml; WI38 cells, 1.0×10^6 cell/ml.
The following reagents were added on ice to generate a total of 24 gels: 3.6 ml 5× DMEM (Gibco/BRL), 1.0 ml 1M HEPES (Sigma), 0.74 ml 0.5M NaOH, 2.0 ml cell suspension in serum-free DMEM, 7.6 ml rat tail collagen I (3.81 mg/ml; Collaborative Research). The collagen mixture was quickly added to a mixture of 4.8 ml decorin and water to yield the appropriate decorin concentration and 0.7 ml was added to each well of a 24 well microtiter dish that previously had been coated with 2% bovine serum albumin in PBS. The gels were allowed to solidify for 1 hr at 37° C. in a humidified incubator, then were released from the edges of the well by tapping or by rimming with a pipet tip.
Gels were transferred aseptically using forceps from the microtiter plate into a Nunc six well plate. Three gels were transferred into each 33 mm well. Prior to transfer, each well received 1 ng/ml TGFβ (from porcine platelets; R&D Systems; Minneapolis Minn.). […] The plates were rocked in a humidified incubator at 37° C. and 7% CO2 for the length of the experiment. The area of the gels was measured daily using photographs from an image analyzer and planimetry.

collagen [2] = experiment: Effect on collagen fibril structure
collagen [3] = experiment: Binding to collagen

N=C(N)NCCC[C@H](N)C(=O)O [mono-arginine, arginine]
inhibition of gel contraction (CTT-18 cells): did not inhibit gel contraction | inhibition of gel contraction (CTT-18 cells; listed as Arg 1): do not inhibit collagen gel contraction

GRGESP
effect on contraction of collagen gels (collagen gels): inhibited contraction of collagen gels

PDGF
collagen gel contraction versus control level ([1]; 1 ng/ml TGFβ, FIG. 6): increased the amount of collagen gel contraction above the control level

TGFβ: growth factor from porcine platelets (R&D Systems) that stimulates contraction
collagen gel contraction versus control level ([1]; 1 ng/ml TGFβ, FIG. 6): increased the amount of collagen gel contraction above the control level | contraction of a collagen/NIH 3T3 gel ([1]; 1.0 ng/ml TGFβ, 24 hr, 0 μg/ml decorin): approximately 60%

acidic FGF: acidic fibroblast-derived growth factor (R & D Systems)
collagen gel contraction versus control level ([1]; 1 ng/ml TGFβ, FIG. 6): increased the amount of collagen gel contraction above the control level

di-arginine
inhibition of gel contraction (CTT-18 cells): did not inhibit gel contraction | inhibition of gel contraction (CTT-18 cells; listed as Arg 2): do not inhibit collagen gel contraction

tri-arginine
inhibition of gel contraction (CTT-18 cells): did not inhibit gel contraction | inhibition of gel contraction (CTT-18 cells; listed as Arg 3): do not inhibit collagen gel contraction

B1: decorin: proteoglycan produced by fibroblasts, core protein about 40 kDa; produced in decorin-expressing CHO cells (protein, UniProt P07585 31-359, looked up)
Decorin: DEASGIGPEVPDDRDFEPSLGPVCPFRCQCHLRVVQCSDLGLDKVPKDLPPDTTLLDLQNNKITEIKDGDFKNLKNLHALILVNNKISKVSPGAFTPLVKLERLYLSKNQLKELPEKMPKTLQELRAHENEITKVRKVTFNGLNQMIVIELGTNPLKSSGIENGAFQGMKKLSYIRIADTNITSIPQGLPPSLTELHLDGNKISRVDAASLKGLNNLAKLGLSFNSISAVDNGSLANTPHLRELHLDNNKLTRVPGGLAEHKYIQVVYLHNNNISVVGSSDFCPPGHNTKKASYSGVSLFSNPVQYWEIQPSTFRCVYVRSAIQLGNYK
gel contraction in the presence of growth factors ([1]; 200 μg decorin per ml gel, 1 ng/ml TGFβ, 10 ng/ml PDGF or 20 ng/ml acidic FGF, FIG. 6): reduced or inhibited the level of gel contraction | gel contraction at 200 μg per ml decorin ([1]; collagen/NIH 3T3 gel, 1 ng/ml TGFβ, 24 hr): no gel contraction was observed | gel contraction with increasing concentrations of decorin in the gel ([1]; collagen/NIH 3T3 gel, 1 ng/ml TGFβ, 24 hr, FIG. 5): reduced or inhibited gel contraction

B2: denatured decorin: denatured decorin, compared with native/intact decorin (protein, UniProt P07585 31-359, looked up)
Decorin: DEASGIGPEVPDDRDFEPSLGPVCPFRCQCHLRVVQCSDLGLDKVPKDLPPDTTLLDLQNNKITEIKDGDFKNLKNLHALILVNNKISKVSPGAFTPLVKLERLYLSKNQLKELPEKMPKTLQELRAHENEITKVRKVTFNGLNQMIVIELGTNPLKSSGIENGAFQGMKKLSYIRIADTNITSIPQGLPPSLTELHLDGNKISRVDAASLKGLNNLAKLGLSFNSISAVDNGSLANTPHLRELHLDNNKLTRVPGGLAEHKYIQVVYLHNNNISVVGSSDFCPPGHNTKKASYSGVSLFSNPVQYWEIQPSTFRCVYVRSAIQLGNYK
modifications: denatured
effect on fibril structure (collagen [2]): does not affect fibril structure | inhibition of gel contraction compared with intact decorin ([1]; cells not given): retains some ability to inhibit gel contraction | collagen binding (collagen [3]): binds collagen to the same extent as nondenatured decorin

B3: Decorin that had been reduced and alkylated: decorin incubated with dithiothreitol, then iodoacetamide (protein, UniProt P07585 31-359, looked up)
Decorin: DEASGIGPEVPDDRDFEPSLGPVCPFRCQCHLRVVQCSDLGLDKVPKDLPPDTTLLDLQNNKITEIKDGDFKNLKNLHALILVNNKISKVSPGAFTPLVKLERLYLSKNQLKELPEKMPKTLQELRAHENEITKVRKVTFNGLNQMIVIELGTNPLKSSGIENGAFQGMKKLSYIRIADTNITSIPQGLPPSLTELHLDGNKISRVDAASLKGLNNLAKLGLSFNSISAVDNGSLANTPHLRELHLDNNKLTRVPGGLAEHKYIQVVYLHNNNISVVGSSDFCPPGHNTKKASYSGVSLFSNPVQYWEIQPSTFRCVYVRSAIQLGNYK
modifications: reduced and alkylated
notes: decorin incubated with dithiothreitol, then iodoacetamide
gel contraction ([1]; reduced and alkylated form, data not shown): inhibited gel contraction

B4: biglycan: proteoglycan with core protein sequence closely related to decorin (protein, UniProt P21810 38-368, looked up)
Biglycan: DEEASGADTSGVLDPDSVTPTYSAMCPFGCHCHLRVVQCSDLGLKSVPKEISPDTTLLDLQNNDISELRKDDFKGLQHLYALVLVNNKISKIHEKAFSPLRKLQKLYISKNHLVEIPPNLPSSLVELRIHDNRIRKVPKGVFSGLRNMNCIEMGGNPLENSGFEPGAFDGLKLNYLRISEAKLTGIPKDLPETLNELHLDHNKIQAIELEDLLRYSKLYRLGLGHNQIRMIENGSLSFLPTLRELHLDNNKLARVPSGLPDLKLLQVVYLHSNNITKVGVNDFCPMGFGVKRAYYNGISLFNNPVPYWEVQPATFRCVTDRLAIQFGNYKK
collagen binding (collagen [3]): can bind to collagen in the gel contraction assays
